Experimental data as given in patent US20140088006A1, “Stem Cell Mobilization and Tissue Repair and Regeneration” (Wellstat Therapeutics Corporation, priority 2011, published 2014).
No end group written: not given here.

What was measured:
[1] = test system: streptozotocin-induced diabetic mice; assay: STZ diabetes model; format: in vivo, C57BL/6 female mice
Description: In order to look at the ability of Compound X mobilized stem cells to mediate tissue regeneration in vivo subcutaneous injections of 250 μg/kg of Compound X were compared with the ability of Compound X treated bone marrow cells to regenerate pancreas in a streptozoticin-induced diabetic model. Streptozotocin (STZ) is an antibiotic that preferentially kills the insulin secreting beta cells in pancreas. STZ-induced diabetes is a widely used model of pancreatic insufficiency.
Streptozotocin was dissolved and diluted into citric acid buffer (pH 4.5) immediately before injections. Drinking water and food were removed for 6 hours from 8-week old C57BL/6 female mice (Charles River) before mice were given a single intraperitoneal dose of 150 mg/kg STZ (Day −4). Blood for glucose determination was obtained from the tail vein four days post STZ. Blood glucose was measured by using an Elite glucometer (Bayer). Mice were considered diabetic if their blood glucose was >300 mg/dL. Mice showing >300 mg/dL blood glucose were randomized and divided into 5 groups of 10 mice (day 0). […]
After 96 hours of expansion, cells were harvested and processed for fluorescence activated cell sorting (FACS). […] Stained cells were excited with laser 2 (488 nm) and fluorescence emission was detected using the following optical filters, FL-3 (PerCP-Cy5.5) 695/BP40, FL-2 (phycoerythrin) 585/BP42 and FL-1 (FITC) 530/BP30. […]

[2] = test system: white blood cells in peripheral blood; assay: White blood cell count after 4 daily injections of G-CSF and Compound X; format: in vivo, mice; details: 5 μg/mouse each agent s.c. daily for 4 days, pooled blood
Description: Compound X and Neupogen (rG-CSF Amgen, lot# P043601) were diluted in PBS. Mice received subcutaneous injections of PBS, Compound X (5 μg/mouse), G-CSF (5 μg/mouse) or Compound X (5 μg/mouse)+G-CSF (5 μg/mouse) for four consecutive days. On the last day of injections, 1 hour post injections, blood was collected through the orbital sinus with heparinized capillary tubes. Blood was pooled from 3 mice/group and white blood cell counts were obtained. Mononuclear cells were isolated by density gradient separation from pooled blood. Cells were washed, counted and plated at 100,000 per dish (5 dishes/group) for CFU-mix and CFU-GM colonies. Blood was also collected and processed on day 8 for colony assay. Results are shown in Tables 10, 11, and 12 and in FIG. 5.

Question: What does the source list for “FPHFDLSHGSAQV [Compound X, tridecapeptide that acts on stem cells]”?
Answer: Survival of STZ treated mice ([1]; s.c. 250 μg/kg for 5 consecutive days for 3 weeks, STZ 150 mg/kg): 100%; mice with substantial weight loss ([1]; s.c. 250 μg/kg stem cell mobilizing doses): No mice; White Blood Cell counts: Cell Count ([2]; Day 4, 1 hour post injection): 7.3 ×10^6; White Blood Cell counts: Cell Count ([2]; Day 8): 6.1 ×10^6
